# Assay results: ChEMBL document CHEMBL1201862, “PubChem BioAssay data set” (2004)
# Active and inactive are the calls of the source. For most assays here, no stated cut-off is given here; in the data, actives have a measured EC50 and inactives only a lower limit.
# What was measured:
# [1] = target: T1, Rac GTPase-activating protein 1 (Homo sapiens, UniProt Q9H0H5); experiment: blockers of MgcRacGAP-driven Rac1 GTP hydrolysis – biochemical, ADP Hunter fluorescence, primary and confirmatory, confirmation (AID 624330); format: functional
# T1 sequence (Q9H0H5 whole entry): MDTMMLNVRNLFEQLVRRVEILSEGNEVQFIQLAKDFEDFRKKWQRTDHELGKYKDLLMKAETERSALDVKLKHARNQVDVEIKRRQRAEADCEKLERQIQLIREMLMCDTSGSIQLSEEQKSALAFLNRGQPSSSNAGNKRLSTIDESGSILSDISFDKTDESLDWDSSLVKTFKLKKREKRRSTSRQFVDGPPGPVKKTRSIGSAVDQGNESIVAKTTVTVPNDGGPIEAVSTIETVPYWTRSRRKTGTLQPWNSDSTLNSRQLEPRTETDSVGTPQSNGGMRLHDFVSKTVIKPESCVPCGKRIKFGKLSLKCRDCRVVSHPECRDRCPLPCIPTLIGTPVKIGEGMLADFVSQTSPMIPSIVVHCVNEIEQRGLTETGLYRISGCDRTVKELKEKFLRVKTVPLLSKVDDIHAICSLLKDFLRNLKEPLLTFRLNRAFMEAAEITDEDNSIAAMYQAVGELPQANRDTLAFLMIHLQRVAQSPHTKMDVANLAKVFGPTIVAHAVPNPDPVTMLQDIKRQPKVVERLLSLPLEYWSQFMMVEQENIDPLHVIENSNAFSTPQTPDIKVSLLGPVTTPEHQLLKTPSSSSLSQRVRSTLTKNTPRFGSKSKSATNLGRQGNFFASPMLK
# [2] = target: T2, High affinity choline transporter 1 (Homo sapiens, UniProt Q9GZV3); experiment: human choline transporter blockers, potency – cell-based, 5-point CRC, membrane potential dye, dose response (AID 504840); format: functional
# T2 sequence (Q9GZV3 whole entry): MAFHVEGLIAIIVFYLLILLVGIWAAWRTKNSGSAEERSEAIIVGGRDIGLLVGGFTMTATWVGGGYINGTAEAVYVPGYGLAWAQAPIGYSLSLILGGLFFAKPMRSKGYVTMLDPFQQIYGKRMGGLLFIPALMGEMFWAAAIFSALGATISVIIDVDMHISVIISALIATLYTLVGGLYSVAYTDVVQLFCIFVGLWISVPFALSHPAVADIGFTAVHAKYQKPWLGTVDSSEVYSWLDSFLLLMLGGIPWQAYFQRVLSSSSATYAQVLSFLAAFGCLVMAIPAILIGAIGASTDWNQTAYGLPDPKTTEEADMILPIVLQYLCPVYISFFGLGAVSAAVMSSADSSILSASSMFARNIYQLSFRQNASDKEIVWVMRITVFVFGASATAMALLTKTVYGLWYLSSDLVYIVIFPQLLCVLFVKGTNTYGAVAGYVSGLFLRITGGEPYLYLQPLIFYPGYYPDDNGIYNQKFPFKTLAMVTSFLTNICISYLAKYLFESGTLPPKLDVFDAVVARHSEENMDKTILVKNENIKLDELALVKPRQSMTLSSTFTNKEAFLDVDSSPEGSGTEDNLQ
# [3] = Luminescence Cell-Based Dose Response HTS to Identify Activators of Luciferase Translation or Activity in H4 […] Cells. [Related pubchem assays: 1829 (Project Summary), 1814 (Primary HTS)]; format: functional
# [4] = Luminescence Cell-Based Dose Confirmation HTS to Identify Activators of 5'UTR Stem-Loop Driven Alpha-Synuclein mRNA Translation in H4 Neuroglioblastoma Cells. [Related pubchem assays: 1829 (Project Summary), 1814 (Primary HTS)]; format: functional
# H4 = experiment: Luminescence Cell-Based Dose Response HTS to Identify Activators of 5'UTR Stem-Loop Driven Prion Protein mRNA Translation in H4 Neuroglioblastoma Cells. [Related pubchem assays: 1829 (Project Summary), 1814 (Primary HTS)]; format: functional; conditions: Homo sapiens
# [5] = non-specific 3'UTR reporter inhibition in Clone20-Shn3RL – cell-based, Renilla luciferase, cherry-picked, counter-screen for Shn3 inhibitor project, dose response (AID 624133); format: functional
# [6] = loss of viability in HepG2 cells – cell-based, CellTiter-Glo, cherry-picked, cytotoxicity control for Shn3 inhibitor project, dose response (AID 624134); format: functional
# [7] = reduction of Shn3 3'UTR-driven luciferase in osteoblasts – cell-based, Clone20 osteoblasts, firefly luciferase, cherry-picked, dose response (AID 624132); format: functional;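 further: firefly luciferase luminescence from reporter carrying the Shn3 3'UTR in osteoblasts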
# [8] = target: T3, Short transient receptor potential channel 4 (Mus musculus, UniProt Q9QUQ5); experiment: calcium entry via TRPC4 opening agents – cell-based, HEK293 TRPC4/mu-opioid, Fluo-4 calcium, dose response (AID 434937); format: functional
# T3 sequence (Q9QUQ5 whole entry): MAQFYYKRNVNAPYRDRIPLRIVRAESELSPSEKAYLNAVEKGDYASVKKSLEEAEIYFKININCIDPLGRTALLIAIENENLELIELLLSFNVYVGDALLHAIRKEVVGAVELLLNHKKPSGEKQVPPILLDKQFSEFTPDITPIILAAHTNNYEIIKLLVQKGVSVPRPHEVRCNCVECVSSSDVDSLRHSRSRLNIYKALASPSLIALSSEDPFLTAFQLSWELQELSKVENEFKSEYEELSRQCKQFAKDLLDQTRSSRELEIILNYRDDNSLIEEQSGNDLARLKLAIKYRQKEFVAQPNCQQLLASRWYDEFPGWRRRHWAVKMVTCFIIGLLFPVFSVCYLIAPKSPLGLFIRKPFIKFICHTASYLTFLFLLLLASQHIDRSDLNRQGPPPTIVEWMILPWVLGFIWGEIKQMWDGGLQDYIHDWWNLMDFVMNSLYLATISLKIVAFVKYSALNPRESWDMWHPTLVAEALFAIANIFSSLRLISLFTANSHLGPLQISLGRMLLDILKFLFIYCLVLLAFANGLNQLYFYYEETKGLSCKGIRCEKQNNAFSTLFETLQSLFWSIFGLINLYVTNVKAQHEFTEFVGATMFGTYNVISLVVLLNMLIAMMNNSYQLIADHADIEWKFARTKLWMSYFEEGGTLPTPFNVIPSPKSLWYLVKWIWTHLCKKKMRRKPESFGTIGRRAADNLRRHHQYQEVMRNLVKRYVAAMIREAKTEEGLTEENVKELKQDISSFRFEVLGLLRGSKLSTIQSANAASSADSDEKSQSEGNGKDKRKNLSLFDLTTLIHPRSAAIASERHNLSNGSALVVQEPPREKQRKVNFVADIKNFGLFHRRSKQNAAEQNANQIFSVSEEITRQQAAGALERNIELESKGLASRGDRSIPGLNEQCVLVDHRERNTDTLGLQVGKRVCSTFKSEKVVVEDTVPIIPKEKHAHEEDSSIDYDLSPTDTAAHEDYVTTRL
# Cytochrome P450 3A4 = Cytochrome P450 3A4 (Homo sapiens, UniProt P08684); conditions: Potency;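 further: confirmatory qHTS run detecting inhibitors and substrates of CYP3A4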
# Sequence of Cytochrome P450 3A4 (P08684 whole entry): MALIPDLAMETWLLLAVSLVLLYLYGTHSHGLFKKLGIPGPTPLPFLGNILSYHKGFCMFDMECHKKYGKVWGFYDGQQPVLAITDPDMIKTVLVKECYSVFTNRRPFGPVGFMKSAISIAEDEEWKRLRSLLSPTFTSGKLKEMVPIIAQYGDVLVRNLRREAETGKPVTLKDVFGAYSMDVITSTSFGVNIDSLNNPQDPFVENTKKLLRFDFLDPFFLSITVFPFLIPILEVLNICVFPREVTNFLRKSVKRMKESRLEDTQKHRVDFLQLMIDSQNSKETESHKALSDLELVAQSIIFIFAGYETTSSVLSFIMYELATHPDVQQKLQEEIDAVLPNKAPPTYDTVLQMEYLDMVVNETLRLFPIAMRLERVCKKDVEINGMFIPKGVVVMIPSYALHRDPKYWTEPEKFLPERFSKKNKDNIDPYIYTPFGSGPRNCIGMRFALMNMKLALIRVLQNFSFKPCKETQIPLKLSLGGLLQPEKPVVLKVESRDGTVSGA
# [9] = target: Heat shock protein HSP 90-alpha (Homo sapiens, UniProt P07900); format: functional, organism-based
# [10] = NIH3T3 cell viability loss – ATP luminescence, mouse fibroblasts, counter-screen, dose response (AID 2010); format: functional, cell-based;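 further: cells exposed to compound for about 90 hours before reading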
# [11] = system: Streptococcus sp. 'group A'; experiment: Streptococcus pyogenes SK(-)GAS viability under kanamycin – luminescence, BacTiterGlo, confirmation, counter-screen for streptokinase expression inhibitor project, dose response (AID 1900); format: functional, organism-based
# Streptokinase A = target: T4, Streptokinase A (Streptococcus pyogenes serotype M1, UniProt P10520); experiment: viability-normalized secreted streptokinase activity reduction – plasminogen activation absorbance, OD405, dose response (AID 1914); format: functional, Streptococcus pyogenes M1 GAS;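 further: secreted streptokinase activity via plasminogen activation per viability signal from cell pellet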
# T4 sequence (P10520 whole entry): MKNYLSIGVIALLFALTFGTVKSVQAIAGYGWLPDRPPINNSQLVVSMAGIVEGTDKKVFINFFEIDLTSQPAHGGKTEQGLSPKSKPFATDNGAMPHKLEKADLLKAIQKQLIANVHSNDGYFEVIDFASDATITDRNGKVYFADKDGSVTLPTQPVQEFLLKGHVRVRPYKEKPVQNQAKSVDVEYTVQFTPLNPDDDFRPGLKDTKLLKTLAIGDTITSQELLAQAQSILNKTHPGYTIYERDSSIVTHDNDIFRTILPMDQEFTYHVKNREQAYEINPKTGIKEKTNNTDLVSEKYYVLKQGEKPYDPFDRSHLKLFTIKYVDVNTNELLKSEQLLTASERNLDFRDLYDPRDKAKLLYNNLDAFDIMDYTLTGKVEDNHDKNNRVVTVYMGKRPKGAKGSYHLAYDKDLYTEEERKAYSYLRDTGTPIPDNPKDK
# [12] = Trypanosoma cruzi growth suppression in host cells – NIH3T3 host cells, beta-gal luminescence, confirmation (AID 2044); format: functional, cell-based;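 further: intracellular parasites grown in NIH/3T3 mouse fibroblasts as host cells; luminescent beta-galactosidase reporter signal from transgenic T. cruzi replicating inside host cells; inhibitors lower the luminescence signal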
# Streptococcus = experiment: GAS UMAA2166 growth inhibition – luminescence, BacTiterGlo, counter-screen for streptokinase expression inhibitor project, dose response (AID 1915); format: functional, organism-based;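 further: potency for reduction of bacterial viability or growth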
# [13] = target: Luciferin 4-monooxygenase (Photinus pyralis, UniProt P08659); experiment: inhibition of purified Photinus pyralis luciferase – biochemical, luminescence, dose response (AID 1891)
# Sequence of Luciferin 4-monooxygenase (P08659 whole entry): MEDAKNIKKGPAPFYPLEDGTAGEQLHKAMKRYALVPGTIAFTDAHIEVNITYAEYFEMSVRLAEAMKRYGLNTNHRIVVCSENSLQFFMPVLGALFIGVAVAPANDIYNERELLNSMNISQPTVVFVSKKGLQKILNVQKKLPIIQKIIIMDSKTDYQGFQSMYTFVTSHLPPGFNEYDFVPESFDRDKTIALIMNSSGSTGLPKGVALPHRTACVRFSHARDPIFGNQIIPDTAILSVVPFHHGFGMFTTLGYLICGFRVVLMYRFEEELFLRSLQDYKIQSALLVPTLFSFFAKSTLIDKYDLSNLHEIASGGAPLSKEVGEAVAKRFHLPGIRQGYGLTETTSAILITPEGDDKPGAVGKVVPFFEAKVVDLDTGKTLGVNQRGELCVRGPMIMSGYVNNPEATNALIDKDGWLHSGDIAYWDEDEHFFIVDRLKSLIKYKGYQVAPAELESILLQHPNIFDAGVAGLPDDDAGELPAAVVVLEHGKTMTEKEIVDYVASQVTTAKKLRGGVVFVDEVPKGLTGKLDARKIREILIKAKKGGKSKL
# [14] = Luminescence Cell-Based Dose Confirmation HTS to Identify Inhibitors of Platelet Dense Granule Release. [Related pubchem assays: 1663 (Primary HTS), 1678 (Summary of Project)]; format: functional
structure (smiles),measurement,setting,value
COc1cccc(CNc2ccc(N3CCC(C)CC3)cc2)c1OC,IC50,[1],7.86 µM (active)
same,IC50,[2],13.2 µM (active)
CC1(C)CC(=O)C2=CNc3ccccc3N=C2C1,EC50,[3],> 120 µM (not active)
same,EC50,[4],> 120 µM (not active)
same,EC50,H4,> 120 µM (not active)
CCc1cc([N+](=O)[O-])cc(CC)c1N,IC50,[2],13.8 µM (active)
CN(Cc1cccc(Cl)c1Cl)C(=O)c1cccc(S(=O)(=O)N2CCN(Cc3ccccc3)CC2)c1,AC50,[5],17.7 µM (active)
same,AC50,[6],55.6 µM (active)
same,AC50,[7],3.38 µM (active)
CCCCN(CC)CCNC(=O)c1cc2cc3ccc(Cl)cc3nc2o1,EC50,[8],0.596 µM (active)
Nc1c(-c2ccc(Cl)cc2)nnn1-c1ccccc1,EC50,[3],0.135 µM (inconclusive)
same,EC50,[4],0.217 µM (active)
same,EC50,H4,13.2 µM (active)
Oc1ccc2c(c1)OC(c1ccc(O)c(O)c1)C(O)C2 (centres undefined),AC50,Cytochrome P450 3A4,25.1 µM (inconclusive)
O=[N+]([O-])c1cccc(CSc2nnc3ccccn23)c1,IC50,[2],16.6 µM (active)
Cc1nn2c(NCc3ccccn3)cc(C(C)(C)C)nc2c1-c1ccccc1,AC50,[9],1.78 µM (active)
same,EC50,[10],> 60 µM (not active)
same,EC50,[11],3.41 µM (active)
same,EC50,Streptokinase A,> 150 µM (not active)
same,EC50,[12],2.21 µM (active)
same,EC50,Streptococcus,5.79 µM (active)
CC(=O)c1ccc(NC(=O)CCc2nnc3ccc(NCc4ccco4)nn23)cc1,EC50,[3],11.2 µM (active)
same,EC50,[13],> 112 µM (not active)
same,EC50,[14],> 112 µM (not active)
same,EC50,[4],6.27 µM (active)
same,EC50,H4,> 120 µM (not active)
Cc1ccc(NC(=O)c2ccc(S(=O)(=O)NCc3ccco3)cc2)nc1,EC50,[3],11.1 µM (active)
same,EC50,[4],15.2 µM (active)
same,EC50,H4,49.7 µM (active)
COc1cc2ccccc2cc1C(=O)Nc1ccc(S(=O)(=O)Nc2cc(C)on2)cc1,IC50,[2],13.8 µM (active)
COc1cccc(NC(=O)c2nnn(CCc3ccccc3)c2N)c1,EC50,[3],6.24 µM (active)
same,EC50,[4],6.28 µM (active)
same,EC50,H4,4.53 µM (active)
Cn1c(=O)c2c(nc(SCCN3CCOCC3)n2Cc2ccc(F)cc2)n(C)c1=O,EC50,[3],5.27 µM (active)
same,EC50,[4],0.262 µM (active)
same,EC50,H4,> 120 µM (not active)
COC(=O)[C@]1(C)CC[C@@]2(C)CC[C@@]3(C)C4=CC=C5C(=CC(=O)C(O)=C5C)[C@@]4(C)CC[C@@]3(C)C2C1 (some centres undefined),AC50,Cytochrome P450 3A4,31.6 µM (inconclusive)
CC(=O)N1[C@H](C)C=C[C@]1(Cc1ccccc1)C(=O)O,AC50,Cytochrome P450 3A4,31.6 µM (inconclusive)
CN(C)C(CNc1ncnc2sc3c(c12)CCCC3)c1ccco1 (centres undefined),EC50,[8],3.35 µM (active)
CCn1cc(/C=C(\NC(=O)c2ccccc2F)C(=O)N2CCOCC2)c2ccccc21,IC50,[2],15.6 µM (active)
CCCCCCC1=Cc2cc(OC)c(OC)cc2C(C2(C(=O)OCC)CCCC2=O)O1 (centres undefined),AC50,Cytochrome P450 3A4,3.16 µM (inconclusive)
COC(=O)N1CC=CC1(C)C(=O)NCc1ccc(C)o1 (centres undefined),AC50,Cytochrome P450 3A4,15.8 µM (inconclusive)
COc1ccc(C[C@H]2COC(=O)[C@@H]2Cc2ccc(OC3OC(CO)C(O)C(O)C3O)c(OC)c2)cc1OC (some centres undefined),AC50,[5],15.5 µM (active)
same,AC50,[6],48.3 µM (active)
same,AC50,[7],4.43 µM (active)
COc1cc2c(cc1OC)-c1cc(NC3CCCCCC3)nc(=O)n1CC2,EC50,[13],> 112 µM (not active)
same,EC50,[14],2.94 µM (active)
same,IC50,[2],12.9 µM (active)
Cc1ccc(C(=O)C(SC(C)(C)C)n2cncn2)cc1 (centres undefined),AC50,[9],3.99 µM (active)
Cc1ccc(CNC(=O)C2CCCN(Cc3cnn(-c4ccccc4)c3-n3cccc3)C2)cc1 (centres undefined),EC50,[8],4.73 µM (active)
O=C(COc1ccc(Br)cc1CNC1CCCC1)Nc1ccccc1,EC50,[8],5.96 µM (active)
CNCCc1n[nH]c(N)n1,EC50,[8],0.0667 µM (active)
O=C1c2sc3nc4ccccc4n3c2C(=O)N1c1ccccc1Cl,EC50,[3],13.8 µM (active)
same,EC50,[4],> 120 µM (not active)
same,EC50,H4,> 120 µM (not active)
COc1ccc(C(CNC(=O)c2ccccc2SC)N(C)C)cc1 (centres undefined),EC50,[8],0.473 µM (active)
COc1ccc(C(CNC(=O)Cc2ccc(Cl)c(Cl)c2)N(C)C)cc1 (centres undefined),EC50,[8],0.299 µM (active)
C=CCSSCC=C,AC50,Cytochrome P450 3A4,25.1 µM (inconclusive)
COc1ccc(-c2cc(=O)c3c(O)cc(O)c(-c4cc(-c5cc(=O)c6c(O)cc(O)cc6o5)ccc4OC)c3o2)cc1 [ISOGINKGETIN],AC50,Cytochrome P450 3A4,3.98 µM (inconclusive)
